In PubChem BioAssay (NCI):
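These data come from cells grown in 96-well plates and exposed to compound for 48 hours at five concentrations. TGI denotes the concentration required for complete inhibition of growth.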

Tests used:
Experiment in all cases: growth of human tumour cells (NCI), 48 h
786-0 renal = system: 786-0 renal
A549 NSCLC = system: A549 NSCLC
ACHN renal = system: ACHN renal
BT-549 breast = system: BT-549 breast
CAKI-1 renal = system: CAKI-1 renal
CCRF-CEM leukemia = system: CCRF-CEM leukemia
COLO 205 colon = system: COLO 205 colon
DU-145 prostate = system: DU-145 prostate
EKVX NSCLC = system: EKVX NSCLC
HCC-2998 colon = system: HCC-2998 colon
HCT-116 colon = system: HCT-116 colon
HCT-15 colon = system: HCT-15 colon
HOP-62 NSCLC = system: HOP-62 NSCLC
HS 578T breast = system: HS 578T breast
HT29 colon = system: HT29 colon
IGROV1 ovarian = system: IGROV1 ovarian
K-562 leukemia = system: K-562 leukemia
KM12 colon = system: KM12 colon
LOX IMVI melanoma = system: LOX IMVI melanoma
MCF7 breast = system: MCF7 breast
MDA-MB-231 breast = system: MDA-MB-231 breast
MDA-MB-435 = system: MDA-MB-435
MDA-N = system: MDA-N
MOLT-4 leukemia = system: MOLT-4 leukemia
NCI-H226 lung = system: NCI-H226 lung
NCI-H23 lung = system: NCI-H23 lung
NCI-H460 lung = system: NCI-H460 lung
NCI-H522 lung = system: NCI-H522 lung
NCI/ADR-RES ovarian = system: NCI/ADR-RES ovarian
OVCAR-3 ovarian = system: OVCAR-3 ovarian
OVCAR-4 ovarian = system: OVCAR-4 ovarian
OVCAR-5 ovarian = system: OVCAR-5 ovarian
OVCAR-8 ovarian = system: OVCAR-8 ovarian
PC-3 prostate = system: PC-3 prostate
RPMI-8226 leukemia = system: RPMI-8226 leukemia
RXF 393 renal = system: RXF 393 renal
SF-268 CNS = system: SF-268 CNS
SF-295 CNS = system: SF-295 CNS
SF-539 CNS = system: SF-539 CNS
SK-MEL-2 melanoma = system: SK-MEL-2 melanoma
SK-MEL-28 melanoma = system: SK-MEL-28 melanoma
SK-MEL-5 melanoma = system: SK-MEL-5 melanoma
SK-OV-3 ovarian = system: SK-OV-3 ovarian
SN12C renal = system: SN12C renal
SNB-19 CNS = system: SNB-19 CNS
SNB-75 CNS = system: SNB-75 CNS
SR leukemia = system: SR leukemia
SW-620 colon = system: SW-620 colon
T-47D breast = system: T-47D breast
TK-10 renal = system: TK-10 renal
U251 CNS = system: U251 CNS
UACC-257 melanoma = system: UACC-257 melanoma
UACC-62 melanoma = system: UACC-62 melanoma
UO-31 renal = system: UO-31 renal

Measured: TGI

CC(=O)CCC[C@H](C)[C@@H](O)[C@@H]1O[C@H]([C@@]2(C)CCC(=O)O2)C[C@H]1C(=O)O
> 100 µM: all assays above
